Experimental data taken from patent publication US20250170252A1, “QUINONE PROTECTED FORMS AND CONJUGATES” (CAMBRIDGE ENTERPRISE LIMITED, priority 2022, published 2025).
Entries after “also recorded” stand apart in the source; their conditions may differ.

How the values were obtained:
[1] = tested on: range of cancer cell lines, including leukaemia, breast, colon, and cervical cancer; test: Toxicity to a range of cancer cell lines (panel); assay type: cell-based; conditions: relative to parent drug 1
Description: Assays assessing cytotoxicity of β-lapachone and derivatives were performed by CellTiter-Blue assay (Promega) according to the manufacturer's instructions. Briefly, adherent cancer-cell lines were plated at 20,000 cells/well in 96 well plates or suspension cell lines were plated at a concentration of 2×10^5 cells/mL in 24 well plates. Compound stocks in media were made by dilution of DMSO stocks containing the compound of interest to obtain a final in-plate DMSO concentration of only 0.1%. Incubation was performed for 48 h. Following incubation, media was replaced with media containing CellTiter-Blue (Promega) in 1:10 dilution and the plates were incubated for 1.5-4 h. The fluorescence of the plates was recorded (excitation 555 nm, emission 585 nm, […] Reader, Molecular Devices). Cell viability was calculated by division of the fluorescence intensity of treated wells by that of the calculated average fluorescence intensity of replicate negative control wells containing cells with 0.1% DMSO only. Values and reported error bars represent the mean and standard error of the mean of three triplicate repeats for each concentration tested.

HL-60 cells [2] = test: N-acetyl cysteine cytotoxicity assay; assay type: cell-based; conditions: HL-60
Description: For assays involving cytotoxicity of β-lapachone derivatives with and without antioxidant N—-acetyl cysteine, HL-60 cells were plated into 24 well plates at a concentration of 2.5×10^5 cells/mL in 450 μL. To each well was then added 25 μL of drug diluted in PBS to obtain the correct in-plate drug concentration, and 25 μL of PBS or a stock of N-acetyl cysteine at 12 mM in PBS. DMSO was maintained at an in-plate concentration of 0.1%. After 96 h incubation, toxicity was assessed by counting of live cells using the Trypan Blue exclusion method with a Countess II Automated Cell Counter (ThermoFisher Scientific) according to the manufacturer's instructions. Cell viability was determined by division of average live cell number of treated wells by average live cell number for control wells treated with 0.1% DMSO. […] Values recorded are the mean of three repeat wells, with error bars representing the standard error of the mean for each concentration tested.

ovine blood [3] = test: Methaemoglobin analysis in sheep's blood; assay type: cell-based; conditions: in vitro ovine blood model, 1 h incubation, absorbance at 630 nm
Description: Defibrinated Oxoid™ sheep's blood (ThermoScientific) was diluted to a 5% v/v suspension in PBS pH 7.4. In a 96 well microtiter plate, 150 μL of blood suspension was added to 50 μL of serially diluted compound in PBS containing a 4× stock of each compound of interest. Serial dilution of compounds from DMSO stocks into PBS was performed to achieve an in-plate DMSO concentration of 0.1%. PBS buffer alone was used as a negative control. Three replicates were performed for each compound concentration analysed. The plate was incubated for the specified time at 37° C. The plate was then centrifuged at 3,500 rpm for 5 min. The supernatant was removed and cells lysed by resuspension in 100 μL of a solution of Triton-X-100 (1%) in PBS. Following this 80 μL of lysed cell contents were transferred to a second microtiter plate for UV measurement. To determine methaemoglobin increase, UV absorbance was measured immediately at 630 nm (MiniMax i3x Imager, Molecular Devices). Methaemoglobin increase was determined by (A630−A^0630)/(A^0630)×100, where A630 is the absorbance of the test well at 630 nm, and A^0630 is the absorbance of the negative control at 630 nm. Mean values and standard error of the mean of three independent replicates are plotted.

ovine blood [4] = test: Haemolysis in in vitro ovine blood model; assay type: cell-based, sheep; conditions: compared with β-lapachone 1
HL-60 cells [5] = test: Cellular ROS detection with DCFH-DA; assay type: cell-based; conditions: HL-60, 2′,7′-dichlorodihydrofluorescein diacetate
Description: To determine ROS generation by compounds in leukaemia cells, HL-60 cells were washed with PBS, then incubated in serum free media (10 mL of 1.6×10^6/mL cell concentration) with 2,7-dichlorofluorescin diacetate (DCFH-DA) at 20 μM for 30 min at 37° C. Following this, the cells were washed with PBS and resuspended in Fluorbrite-DMEM media (ThermoFisher) (10 mL). 450 μL of the cell mixture was seeded into wells of a clear flat bottomed 12 well plate, to which 50 μL of a 10× stock of the compounds in media had been already added, to achieve a final compound concentration of 50 μM. The 10× media stocks were made by 100-fold dilution of DMSO compound stocks, to ensure a final in-plate DMSO concentration of 0.1%. DMSO 0.1% only was used as a negative control. H2O2 was used as a positive control, for which 10 μL of a 30% aqueous solution was dissolved into 1 mL DMSO, then diluted 100-fold into media for plating, to give a final H2O2 concentration of […]. After plating the cells were immediately incubated at 37° C. in the dark for 15 min before the fluorescence of the wells (excitation 485 nm, emission 535 nm) was recorded (MiniMax i3x Imager, Molecular Devices). Values recorded are the mean of three repeat wells, with error bars representing the standard error of the mean.

[6] = In vitro redox-cycling ability, phenol red/horseradish peroxidase assay; assay type: biochemical; conditions: HRP/phenol-red reporter assay, absorbance at 610 nm; up to 25 μM
Description: In vitro redox cycling capability of compounds was assessed by phenol red/horseradish peroxidase (HRP) assay by adaption of a previously described protocol (Assay Drug Dev. Technol., 2008, 6, 505-518). Briefly, stocks were prepared as follows: (1) DTT to a concentration of 2.4 μM in PBS pH 7.4 buffer; (2) compound stocks in PBS pH 7.4 buffer to 3× the desired concentration by 1000× dilution of DMSO stocks; (3) a stock of phenol-red-HRP detection reagent containing 300 μg/mL phenol red and 180 μg/mL HRP enzyme in PBS pH 7.4 buffer; (4) a stock of 1 M NaOH in water; (5) a stock of 100 μM H2O2 in PBS prepared by addition of a 30% solution of H2O2 in water into 1000 μL of PBS. Into each well of a 96 well clear flat-bottomed plate was then added 40 μL of compound stock in PBS followed by 40 μL of DTT stock, followed immediately by 40 μL of phenol-red-HRP reagent. A positive control with 100 μM H2O2 added in place of compound was included. The plate was incubated in the dark at room temperature for 15 min. Following this 20 μL of 1 M NaOH was added to each well to terminate the reaction. Absorbance was immediately measured at 610 nm (MiniMax i3x Imager, Molecular Devices). Absorbance of treated wells was normalised to control wells treated with PBS only (zero redox cycling). All readings were performed in triplicate and error bars display standard error of the mean.

MOLM-13 = test: Viability assay with small molecule prodrugs, Trypan Blue exclusion, MOLM-13; assay type: cell-based; conditions: MOLM-13
Description: (§1) For assays assessing cytotoxicity of β-lapachone versus small molecule dipeptide prodrugs, suspension cells were plated into 24 well plates at a density of 2.5×10^5 cells/mL in 240 μL. Serial dilutions of compound were made up in PBS. 60 μL of each stock of either PBS, or compound in PBS was added to the cells to achieve the desired final concentration. After the specified incubation time, toxicity was assessed by counting of live cells using the Trypan Blue exclusion method with a Countess II Automated Cell Counter (ThermoFisher Scientific) according to the manufacturer's instructions. Cell viability was determined by division of average live cell number of treated wells by average live cell number for control wells treated with PBS only. Values recorded are the mean of three repeat wells, with error bars representing the standard error of the mean for each concentration tested. IC50 values were calculated using GraphPad Prism software.

HL-60 = test: Viability assay with small molecule prodrugs, Trypan Blue exclusion, HL-60; assay type: cell-based
Description: as §1

HL-60 cells [7] = test: Lysosomal inhibition assay with small molecule prodrugs; assay type: cell-based; conditions: HL-60, compared with untreated
Description: Assays to assess the effect of lysosomal activity on prodrugs were performed as follows: HL-60 cells were plated into 96 well plates at a concentration of 2.5×10^5 cells/mL in 180 μL media. Cells were treated with 10 μL of a stock of NH4Cl in PBS (to obtain an in-plate concentration of 3 or 30 mM), 10 μL of a dilution of a DMSO stock of E64d in PBS (to obtain an in-plate concentration of 30 μM), PBS only, or a dilution of DMSO in PBS. Cells were incubated for 30 min. Following this, 10 μL of a stock of test compound made by dilution of a DMSO stock into media was added. DMSO was present in-plate at a maximum of 0.2%. Cells were incubated overnight for 16 h. Following incubation, media was replaced with media containing CellTiter-Blue (Promega) in 1:4 dilution and the plates were incubated for 6 h. The fluorescence of the plates was recorded (excitation 555 nm, emission 585 nm, MiniMax i3x Reader, Molecular Devices). Cell viability was calculated by division of the fluorescence intensity of treated wells by that of the calculated average fluorescence intensity of the relevant negative control wells. Values and reported error bars represent the mean and standard error of the mean of three triplicate repeats for each concentration tested.

methaemoglobin formation (ovine blood [3]) | IC50 relative to 1 (MOLM-13) | IC50 relative to 1 (HL-60) | SMILES | decrease in toxicity [1] | change of IC50 upon NAC addition (HL-60 cells [2]) | haemolysis of haemoglobin (ovine blood [4]) | ROS generation (HL-60 cells [5]) | redox activity (in vitro redox-cycling capability) [6] | toxicity after lysosomal deacidification (NH4Cl) or inhibition (E64d) (HL-60 cells [7])
did not occur |  |  | CC1(C)CCC2=C(O1)c1ccccc1C(O)(Cc1ccccc1)C2=O (stereo not drawn) [Compound 24, 6-benzyl-6-hydroxy-2,2-dimethyl-2,3,4,6-tetrahydro-5H-benzo[h]chromen-5-one] | > 20 fold | unchanged | lower | did not generate detectable ROS | no measurable redox activity; also recorded: non-redox active | 
 | 10 fold | 10 fold | CC(C)[C@H](NC(=O)OCc1ccccc1)C(=O)N[C@@H](CCCNC(N)=O)C(=O)Nc1ccc(CC2(O)C(=O)C3=C(OC(C)(C)CC3)c3ccccc32)cc1 (stereo partly drawn) [Compound 26, Cbz-Val-Cit-para-aminobenzyl β-lapa-ketol] |  |  |  |  |  | less toxic
did not occur |  |  | CC1(C)CCc2c3c(c4ccccc4c2O1)OCCO3 [Compound 25, 7,7-dimethyl-2,3,5,6-tetrahydro-1,4,8-trioxatriphenylene, reference compound] |  |  | lower |  | no measurable redox activity | 
